Assays:
[1] = system: vasopressin V2; assay: Vasopressin V2 Antagonist Activity in Conscious Hydrated Rats (diuretic effect); format: in vivo, normal Sprague-Dawley rats; details: AVP 0.4 μg/kg i.p.
Method: Conscious hydrated rats are treated with compounds under study from 0.1 to 100 mg/kg orally or vehicle. Two to four rats are used for each compound. One hour later, arginine vasopressin (AVP, antidiuretic hormore, ADH) dissolved in peanut oil is administered at 0.4 μg/kg intraperitoneally. Two rats in each test would not receive arginine vasopressin but only the vehicle (peanut oil) to serve as water-loading control. Twenty minutes later each rat is given 30 mL/kg of deionized water orally by gavage and is placed individually in a metabolic cage equipped with a funnel and a graduated glass cylinder to collect urine for four hours. Urine volume is measured and osmolality analyzed by use of a Fiske One-Ten osmometer (Fiske Assoc., Norwood, Mass., USA). Urinary sodium, potassium, and chloride are analyzed by use of ion-specific electrodes in a Beckman E3 (Electrolyte 3) Analyzer. In the following results, […] and decreased osmolality relative to AVP-control indicates activity.

[2] = target: vasopressin V1 receptor (rat liver plasma membranes) (Rattus norvegicus, UniProt P30560); assay: Binding Assay to Rat Hepatic V1 Receptors; details: rat hepatic V1
Method: Rat liver plasma membranes expressing the vasopressin V1 receptor subtypes are isolated by sucrose density gradient according to the method described by Lesko et al., (1973). These membranes are quickly suspended in 50.0 mM Tris.HCl buffer, pH 7.4, containing 0.2% bovine serum albumin (BSA) and 0.1 mM phenylmethylsulfonylfluoride (PMSF) and kept frozen at -70° C. until used in subsequent binding experiments. For binding experiments, the following is added to the wells of a ninety-six well format microtiter plate: 100 μl of 100.0 mM Tris.HCl buffer containing 10.0 mM MgCl2, 0.2% heat inactivated BSA and a mixture of protease inhibitors: leupeptin, 1.0 mg %; aprotinin, 1.0 mg %; 1,10-phenanthroline,2.0 mg %; trypsin inhibitor, 10.0 mg % and 0.1 mM PMSF, 20.0 μl of [phenylalanyl-3,4,5,-^3 H] vasopressin (S.A. 45.1 Ci/mmole) at 0.8 nM, and the reaction initiated by the addition of 80 μl of tissue membranes containing 20 μg of tissue protein. The plates are kept undisturbed on the bench top at room temperature for 120 min. to reach equilibrium. Non-specific samples are assayed in the presence of 0.1 μM of the unlabeled antagonist phenylalanylvasopressin, added in 20.0 μl volume.
For test compounds, these are solubilized in 50% dimethylsulfoxide (DMSO) and added in 20.0 μl volume to a final incubation volume of 200 μl. Upon completion of binding, the content of each well is filtered off, using a Brandel® cell Harvester (Gaithersburg, Md.). The radioactivity trapped on the filter disk by the ligand-receptor complex is assessed by liquid scintillation counting in a Packard LS Counter, with an efficiency of 65% for tritium.

[3] = system: vasopressin V1; assay: Vasopressin V1 Antagonist Activity in Conscious Rats (vasopressin vasopressor response); format: in vivo, rat (spontaneously hypertensive rats); design: Average Change: unit not given here
Method: Conscious rats are restrained in a supine position with elastic tape. The area at the base of the tail is locally anesthetized by subcutaneous infiltration with 2% procaine (0.2 ml). Using aseptic technique the ventral caudal tail artery is isolated and a cannula made of PE 10 and 20 (heat-fused) tubing is passed into the lower abdominal aorta. The cannula is secured, heparinized (1000 i.u./cc), sealed and the wound closed with one or two stitches of Dexon 4-0. The caudal vein is also cannulated in the same manner for intravenous drug administration. The duration of the surgery is approximately 5 minutes. Additional local anesthesia (2% procaine or lidocaine) is provided as needed.
The animals are placed in plastic restraining cages in an upright position. The cannula is attached to a Statham P23Db pressure transducer and pulsatile blood pressure is recorded. […] The vasopressin injections are repeated 30, 60, 90, 120, 180, 240 and 300 min. later. Percentage of antagonism by the compound is calculated using the pre-drug vasopressin vasopressor response as 100%.

[4] = target: T1, rat kidney medullary V2 receptors (Rattus norvegicus, UniProt Q00788); assay: Binding Assay to Rat Kidney Medullary V2 Receptors; details: rat kidney medullary V2
T1 construct: Medullary tissues from rat kidneys are dissected out; from tissue; host or cells: rat kidney medulla membranes
Method: Medullary tissues from rat kidneys are dissected out, cut into small pieces and soaked in a […] sodium chloride solution containing 1.0 mM EDTA with many changes of the liquid phase, until the solution is clear of blood. The tissue is homogenized in a 0.25M sucrose solution containing 1.0 mM EDTA and 0.1 mM PMSF using a Potter-Elvehjem homogenizer with a teflon pestle. The homogenate is filtered through several layers (4 layers) of cheese cloth. The filtrate is rehomogenized using a dounce homogenizer, with a tight fitting pestle. The final homogenate is centrifuged at 1500×g for 15 min. The nuclear pellet is discarded and the supernatant fluid recentrifuged at 40,000×g for 30 min. The resulting pellet formed contains a dark inner part with the exterior, slightly pink. The pink outer part is suspended in a small amount of 50.0 mM Tris.HCl buffer, pH 7.4. The protein content is determined by the Lowry's method (Lowry et al., J. Biol. Chem., 1953). The membrane suspension is stored at -70° C., in 50.0 mM Tris.HCl, containing 0.2% inactivated BSA and 0.1 mM PMSF in aliquots of 1.0 ml containing 10.0 mg protein per ml of suspension until use in subsequent binding experiments.
For binding experiments, the following is added in μl volume to wells of a 96 well format of a microtiter plate: 100.0 μl of 100.0 mM Tris.HCl buffer containing 0.2% heat inactivated BSA, 10.0 mM MgCl2 and a mixture of protease inhibitors: leupeptin, 1.0 mg %; aprotinin, 1.0 mg %; 1,10-phenanthroline, 2.0 mg %; trypsin inhibitor, 10.0 mg % and 0.1 mM PMSF, 20.0 μl of [^3 H] Arginine^8, vasopressin (S.A. 75.0 Ci/mmole) at 0.8 nM and the reaction initiated by the addition of 80.0 μl of tissue membranes (200.0 μg tissue protein). The plates are left undisturbed on the bench top for 120 min to reach equilibrium. Non-specific binding is assessed in the presence of 1.0 μM of unlabeled ligand, added in 20 μl volume. For test compounds, these are solubilized in 50% dimethylsulfoxide (DMSO) and added in 20.0 μl volume to a final incubation volume of 200 μl. Upon completion of binding, the content of each well is filtered off, using a Brandel® cell Harvester (Gaithersburg, Md.). The radioactivity trapped on the filter disk by the ligand-receptor complex is assessed by liquid scintillation counting in a Packard LS Counter, with an efficiency of 65% for tritium.

[5] = 30 mg/kg p.o., VAS 0.01 i.u./kg, 30 min
[6] = 30 mg/kg p.o., VAS 0.01 i.u./kg, 60 min
[7] = 30 mg/kg p.o., VAS 0.01 i.u./kg, 90 min
[8] = 30 mg/kg p.o., VAS 0.01 i.u./kg, 120 min
[9] = 30 mg/kg p.o., VAS 0.01 i.u./kg, 180 min
[10] = 30 mg/kg p.o., VAS 0.01 i.u./kg, 240 min
[11] = 30 mg/kg p.o., VAS 0.02 i.u./kg, 30 min
[12] = 30 mg/kg p.o., VAS 0.02 i.u./kg, 60 min
[13] = 30 mg/kg p.o., VAS 0.02 i.u./kg, 90 min
[14] = 30 mg/kg p.o., VAS 0.02 i.u./kg, 120 min
[15] = 30 mg/kg p.o., VAS 0.02 i.u./kg, 180 min
[16] = 30 mg/kg p.o., VAS 0.02 i.u./kg, 240 min
[17] = 10 mg/kg i.v., VAS 0.01 i.u./kg, 30 min
[18] = 10 mg/kg i.v., VAS 0.01 i.u./kg, 60 min
[19] = 10 mg/kg i.v., VAS 0.01 i.u./kg, 90 min
[20] = 10 mg/kg i.v., VAS 0.01 i.u./kg, 120 min
[21] = 10 mg/kg i.v., VAS 0.01 i.u./kg, 180 min
[22] = 10 mg/kg i.v., VAS 0.01 i.u./kg, 240 min
[23] = 10 mg/kg i.v., VAS 0.01 i.u./kg, 300 min
[24] = 10 mg/kg i.v., VAS 0.02 i.u./kg, 30 min
[25] = 10 mg/kg i.v., VAS 0.02 i.u./kg, 60 min
[26] = 10 mg/kg i.v., VAS 0.02 i.u./kg, 90 min
[27] = 10 mg/kg i.v., VAS 0.02 i.u./kg, 120 min
[28] = 10 mg/kg i.v., VAS 0.02 i.u./kg, 180 min
[29] = 10 mg/kg i.v., VAS 0.02 i.u./kg, 240 min
[30] = 10 mg/kg i.v., VAS 0.02 i.u./kg, 300 min

vasopressin V1 receptor (rat liver plasma membranes), sequence (P30560 whole entry): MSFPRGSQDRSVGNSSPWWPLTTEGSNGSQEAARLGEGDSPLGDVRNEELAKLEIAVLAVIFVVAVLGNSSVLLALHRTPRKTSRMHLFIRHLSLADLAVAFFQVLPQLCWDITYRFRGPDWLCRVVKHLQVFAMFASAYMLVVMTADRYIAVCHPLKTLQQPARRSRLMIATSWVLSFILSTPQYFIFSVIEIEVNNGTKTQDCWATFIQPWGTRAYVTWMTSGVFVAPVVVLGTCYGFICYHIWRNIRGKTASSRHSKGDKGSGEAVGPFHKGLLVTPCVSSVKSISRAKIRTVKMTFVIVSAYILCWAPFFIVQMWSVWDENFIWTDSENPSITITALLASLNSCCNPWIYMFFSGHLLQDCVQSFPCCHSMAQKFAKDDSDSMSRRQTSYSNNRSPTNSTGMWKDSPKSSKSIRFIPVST
T1 sequence (Q00788 whole entry): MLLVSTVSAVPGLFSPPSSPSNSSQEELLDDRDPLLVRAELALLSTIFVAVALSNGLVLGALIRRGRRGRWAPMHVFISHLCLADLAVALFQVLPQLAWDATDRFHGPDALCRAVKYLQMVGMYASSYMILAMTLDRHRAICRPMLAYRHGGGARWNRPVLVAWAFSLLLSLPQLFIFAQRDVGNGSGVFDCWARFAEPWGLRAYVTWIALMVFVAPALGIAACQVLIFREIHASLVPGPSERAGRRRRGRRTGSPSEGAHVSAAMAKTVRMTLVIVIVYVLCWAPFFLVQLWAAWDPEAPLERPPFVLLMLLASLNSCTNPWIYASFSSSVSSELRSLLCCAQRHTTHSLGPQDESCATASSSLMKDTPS

O=C(Cc1ccccc1Cl)Nc1ccc(C(=O)N2Cc3ccccc3Cc3ccccc32)cc1 [Example 16, 2-Chloro-N-[4-[(6,11-dihydro-5H-dibenz[b,e]azepin-5-yl)carbonyl]phenyl]benzeneacetamide]
Osmolality ([1]; 30 mg/kg orally): 1257 mOsm/kg | Urine Volume ([1]; 30 mg/kg orally): 7.2 ml/4 hrs. | IC50 [2]: 53 nM | Average Change [3, 5]: 25 | Inhibition [3, 5]: 15% | Average Change [3, 6]: 30.5 | Inhibition [3, 6]: -3% | Average Change [3, 7]: 28.5 | Inhibition [3, 7]: 3% | Average Change [3, 8]: 23.5 | Inhibition [3, 8]: 20% | Average Change [3, 9]: 30.5 | Inhibition [3, 9]: -3% | Average Change [3, 10]: 30 | Inhibition [3, 10]: -2% | Average Change [3, 11]: 27.5 | Inhibition [3, 11]: 17% | Average Change [3, 12]: 29 | Inhibition [3, 12]: 12% | Average Change [3, 13]: 40.5 | Inhibition [3, 13]: -23% | Average Change [3, 14]: 29.5 | Inhibition [3, 14]: 11% | Average Change [3, 15]: 26 | Inhibition [3, 15]: 21% | Average Change [3, 16]: 30 | Inhibition [3, 16]: 9% | IC50 [4]: 65 nM

Cc1ccccc1C(=O)Nc1ccc(C(=O)N2CCc3ccccc3-c3ccccc32)cc1 [Example 92, N-[4-[(6,7-Dihydro-5H-dibenz[b,d]azepin-5-yl)-carbonyl]phenyl]-2-methylbenzamide]
Osmolality ([1]; 10 mg/kg orally): 679 mOsm/kg | Urine Volume ([1]; 10 mg/kg orally): 13.5 ml/4 hrs. | IC50 [2]: 98 nM | Average Change [3, 17]: 10.5 | Inhibition [3, 17]: 65% | Average Change [3, 18]: 18 | Inhibition [3, 18]: 40% | Average Change [3, 19]: 17.5 | Inhibition [3, 19]: 42% | Average Change [3, 20]: 19 | Inhibition [3, 20]: 37% | Average Change [3, 21]: 18 | Inhibition [3, 21]: 40% | Average Change [3, 22]: 19 | Inhibition [3, 22]: 37% | Average Change [3, 23]: 17.5 | Inhibition [3, 23]: 42% | Average Change [3, 24]: 18.5 | Inhibition [3, 24]: 60% | Average Change [3, 25]: 22 | Inhibition [3, 25]: 53% | Average Change [3, 26]: 27 | Inhibition [3, 26]: 42% | Average Change [3, 27]: 20.5 | Inhibition [3, 27]: 56% | Average Change [3, 28]: 29.5 | Inhibition [3, 28]: 37% | Average Change [3, 29]: 18 | Inhibition [3, 29]: 61% | Average Change [3, 30]: 24 | Inhibition [3, 30]: 48% | IC50 [4]: 25 nM

Source: patent US5834461A, “Tricyclic benzazepine vasopressin antagonists” (American Cyanamid Company, priority 1997, dated 1998)
